Experimental data: the NIST ThermoML archive (doi:10.1021/acs.jced.6b00657)

Test: xn = mol fraction of the nth substance listed
Details: Liquid, absorption in thin film, x2 = 0

CCCCCC[n+]1ccn(C)c1.N#C[C-](C#N)C#N [3-hexyl-1-methylimidazolium tricyanomethanide] + O=C=O
Details	binary diffusion coefficient [m2/s]
298.15 K, 94 kPa	2e-10
298.15 K, 194 kPa	1.8e-10
298.15 K, 293 kPa	1.8e-10
298.15 K, 393 kPa	2e-10
298.15 K, 493 kPa	2e-10
298.15 K, 693 kPa	2.4e-10
298.15 K, 793 kPa	2.4e-10
298.15 K, 893 kPa	2.4e-10
298.15 K, 993 kPa	2.2e-10
298.15 K, 1193 kPa	3e-10
298.15 K, 1293 kPa	3.2e-10
298.15 K, 1393 kPa	2.9e-10
298.15 K, 1493 kPa	3e-10
298.15 K, 1693 kPa	3.1e-10
298.15 K, 1793 kPa	3.3e-10
308.15 K, 101 kPa	2.6e-10
308.15 K, 198 kPa	2.4e-10
308.15 K, 297 kPa	2.5e-10
308.15 K, 394 kPa	2.5e-10
308.15 K, 494 kPa	2.5e-10
308.15 K, 593 kPa	2.5e-10
308.15 K, 692 kPa	2.7e-10
308.15 K, 793 kPa	2.2e-10
308.15 K, 892 kPa	3.3e-10
308.15 K, 993 kPa	2.9e-10
308.15 K, 1093 kPa	3.1e-10
308.15 K, 1192 kPa	3.3e-10
308.15 K, 1292 kPa	3.3e-10
308.15 K, 1393 kPa	3.4e-10
308.15 K, 1492 kPa	3.4e-10
308.15 K, 1592 kPa	4e-10
308.15 K, 1693 kPa	3.8e-10
308.15 K, 1793 kPa	4.1e-10
308.15 K, 1893 kPa	4e-10
308.15 K, 1993 kPa	4.1e-10
323.15 K, 94 kPa	2.8e-10
323.15 K, 194 kPa	4.1e-10
323.15 K, 293 kPa	3.1e-10
323.15 K, 393 kPa	3.5e-10
323.15 K, 493 kPa	3.9e-10
323.15 K, 594 kPa	4.2e-10
323.15 K, 693 kPa	3.7e-10
323.15 K, 793 kPa	3.7e-10
323.15 K, 893 kPa	3.9e-10
323.15 K, 993 kPa	4e-10
323.15 K, 1093 kPa	3.8e-10
323.15 K, 1193 kPa	4e-10
323.15 K, 1293 kPa	4e-10
323.15 K, 1393 kPa	4.4e-10
323.15 K, 1493 kPa	4.3e-10
323.15 K, 1593 kPa	4.2e-10
323.15 K, 1693 kPa	4.7e-10
323.15 K, 1793 kPa	4.5e-10
323.15 K, 1893 kPa	3.7e-10
323.15 K, 1993 kPa	5.4e-10
338.25 K, 194 kPa	5.1e-10
338.25 K, 294 kPa	3.7e-10
338.25 K, 393 kPa	4.9e-10
338.25 K, 494 kPa	6.7e-10
338.25 K, 693 kPa	4.9e-10
338.25 K, 793 kPa	4.8e-10
338.25 K, 893 kPa	5.8e-10
338.25 K, 993 kPa	5.3e-10
338.25 K, 1092 kPa	5.3e-10
338.25 K, 1193 kPa	5.3e-10
338.25 K, 1292 kPa	5.6e-10
338.25 K, 1393 kPa	4.8e-10
338.25 K, 1493 kPa	5.5e-10
338.25 K, 1592 kPa	4.9e-10
338.25 K, 1693 kPa	6.6e-10
338.25 K, 1792 kPa	6e-10
338.25 K, 1893 kPa	6.1e-10
338.25 K, 1993 kPa	6.3e-10
353.25 K, 594 kPa	6.4e-10
353.25 K, 694 kPa	7.1e-10
353.25 K, 893 kPa	6e-10
353.25 K, 993 kPa	6.5e-10
353.25 K, 1193 kPa	6.3e-10
353.25 K, 1293 kPa	6.8e-10
353.25 K, 1393 kPa	6.3e-10
353.25 K, 1593 kPa	5.3e-10
353.25 K, 1693 kPa	7.6e-10
353.25 K, 1793 kPa	7.7e-10
353.25 K, 1893 kPa	7.7e-10
353.25 K, 1993 kPa	6.7e-10

CCn1cc[n+](C)c1.N#C[C-](C#N)C#N [1-ethyl-3-methyl-1H-imidazolium tricyanomethanide] + O=C=O
Details	binary diffusion coefficient [m2/s]
298.15 K, 96 kPa	3.3e-10
298.15 K, 194 kPa	2.4e-10
298.15 K, 294 kPa	2.7e-10
298.15 K, 393 kPa	2.6e-10
298.15 K, 493 kPa	2.8e-10
298.15 K, 793 kPa	3.6e-10
298.15 K, 893 kPa	3.2e-10
298.15 K, 993 kPa	3.2e-10
298.15 K, 1293 kPa	3.9e-10
298.15 K, 1393 kPa	3.8e-10
298.15 K, 1493 kPa	4.1e-10
298.15 K, 1793 kPa	4.4e-10
298.15 K, 1893 kPa	4.1e-10
298.15 K, 1992 kPa	4.2e-10
308.15 K, 194 kPa	2.9e-10
308.15 K, 293 kPa	3e-10
308.15 K, 393 kPa	3e-10
308.15 K, 493 kPa	3e-10
308.15 K, 593 kPa	3.1e-10
308.15 K, 693 kPa	3.3e-10
308.15 K, 792 kPa	3.8e-10
308.15 K, 893 kPa	3.6e-10
308.15 K, 993 kPa	3.5e-10
308.15 K, 1093 kPa	3.6e-10
308.15 K, 1192 kPa	4.1e-10
308.15 K, 1293 kPa	3.7e-10
308.15 K, 1393 kPa	3.9e-10
308.15 K, 1493 kPa	4.1e-10
308.15 K, 1593 kPa	3.9e-10
308.15 K, 1693 kPa	4.1e-10
308.15 K, 1792 kPa	4.2e-10
308.15 K, 1893 kPa	4.5e-10
308.15 K, 1993 kPa	4.1e-10
323.15 K, 194 kPa	4.4e-10
323.15 K, 294 kPa	4.8e-10
323.15 K, 394 kPa	4.4e-10
323.15 K, 494 kPa	3.9e-10
323.15 K, 593 kPa	4.1e-10
323.15 K, 692 kPa	4.1e-10
323.15 K, 793 kPa	4.4e-10
323.15 K, 892 kPa	5e-10
323.15 K, 993 kPa	4.4e-10
323.15 K, 1093 kPa	4.2e-10
323.15 K, 1193 kPa	5.3e-10
323.15 K, 1392 kPa	4.6e-10
323.15 K, 1492 kPa	4.2e-10
323.15 K, 1593 kPa	4.2e-10
323.15 K, 1693 kPa	4.2e-10
323.15 K, 1793 kPa	5.9e-10
323.15 K, 1993 kPa	4.9e-10
338.25 K, 94 kPa	5.1e-10
338.25 K, 194 kPa	5e-10
338.25 K, 294 kPa	5.1e-10
338.25 K, 394 kPa	4.9e-10
338.25 K, 494 kPa	5.8e-10
338.25 K, 594 kPa	4.5e-10
338.25 K, 693 kPa	4.6e-10
338.25 K, 793 kPa	5.6e-10
338.25 K, 893 kPa	5.2e-10
338.25 K, 1093 kPa	5.1e-10
338.25 K, 1192 kPa	5.2e-10
338.25 K, 1393 kPa	5.8e-10
338.25 K, 1493 kPa	4.9e-10
338.25 K, 1592 kPa	5.1e-10
338.25 K, 1693 kPa	4.6e-10
338.25 K, 1792 kPa	5.2e-10
338.25 K, 1993 kPa	5.4e-10
353.25 K, 95 kPa	6.1e-10
353.25 K, 294 kPa	9e-10
353.25 K, 494 kPa	7.4e-10
353.25 K, 594 kPa	6.6e-10
353.25 K, 694 kPa	6.6e-10
353.25 K, 794 kPa	6.8e-10
353.25 K, 894 kPa	7.8e-10
353.25 K, 994 kPa	6.7e-10
353.25 K, 1093 kPa	6.8e-10
353.25 K, 1192 kPa	7e-10
353.25 K, 1593 kPa	7.5e-10
353.25 K, 1693 kPa	8.2e-10
353.25 K, 1893 kPa	7.4e-10
353.25 K, 1993 kPa	7.8e-10
